Consider 4 compounds from article PMC12190436, “5-Ene-2-arylaminothiazol-4(5H)-ones Induce Apoptosis in Breast Cancer Cells” (Cells, 2025).

One series has as its system MCF-7 cells. Briefly: ROS generation, H2DCFDA/DAPI double staining. Format: cell-based, human. The protocol:
MCF-7 cells were seeded in 6-well plates at 1 × 10^5 cells per well in 2 mL medium. Afterwards, cells were treated with the mentioned compounds for 1 and 3 h, respectively. Next, cells were washed, and 20 µM of H2DCFDA was added for 30 min. After that, 10 µg/mL of DAPI was added to observe the nuclear DNA of cells. The results were obtained with the use of a Nikon ECLIPSE Ti fluorescence microscope (Nikon, Tokyo, Japan), followed by further assessment via ImageJ software version 1.54k (Bethesda, MD, USA).
H2DCFDA (green fluorescence) was utilized to mark oxidative stress, and DAPI (blue fluorescence) to stain nuclear genetic material.

Another series relates to NCI-H522. Type of series: cell-based.
Series [1] relates to panel of 60 cancer cell lines. Format: cell-based. As to conditions: for Mean Growth, % / Range of Growth, % / Positive Cytostatic Effect / Positive Cytotoxic Effect: 10 μM; for Mean Growth, % / Range of Growth, %: one dose; for Positive Cytostatic Effect: number of cell lines with GP from 0 to 50 / total number of cell lines; for Positive Cytotoxic Effect: number of cell lines with GP of <0 / total number of cell lines; for LC50: read-out: MG_MID_60 LC50.

For a further series, the system named is caspase 10. Kind of series: FLICA caspase-10 activity, flow cytometry. Format: cell-based, human. The conditions noted are these: 5 µM, 24 h, MCF-7. The method, then:
To determine the effects of the novel compounds on the caspases-3/7, caspase-8, caspase-9, and caspase-10 activity, the FLICA Caspase-3/7 Assay Kit, FLICA Caspase-8 Assay Kit, FLICA Caspase-9 Assay Kit, and FLICA Caspase-10 Assay Kit were applied (ImmunoChemistry Technologies, Bloomington, MN, USA). MCF-7 cells were seeded on 6-well plates (1 × 10^5 cells per well) and incubated for 24 h. Afterwards, they were treated for 24 h with tested compounds (Les-6416, Les-6418, Les-6381, Les-6423, and Les-6424) in a concentration of 5 µM and the reference drug doxorubicin hydrochloride in a concentration of 0.5 µM. Next, cells were amassed and washed two times with cold PBS, followed by resuspension in an Apoptosis Wash Buffer to a final concentration of 5 × 10^5 cells/mL. Afterwards, 290 µL of the prepared cell suspensions were transferred into tubes, followed by the addition of 10 µL of FLICA solution, prepared immediately before use, to each sample and incubated for an hour at 37 °C. Next, cells were washed two times with 2 mL of Apoptosis Wash Buffer, provided in the kit, centrifuged, and resuspended in 300 µL of the buffer. Prepared samples were assessed by a BD FACSCanto II flow cytometer (Becton Dickinson Biosciences, San Jose, CA, USA). For each sample, 1 × 10^4 events were analyzed. […]

Another series relates to MDA-MB-435. Type of series: cell-based. The conditions noted are these: for Growth %: MDA-MB-435, 10 μM, one dose, 48 h.
A further series relates to Bax. Kind of series: Bax, anti-Bax FITC antibody flow cytometry. Type of series: cell-based, human. The conditions noted are these: 5 µM, 24 h, MCF-7. The method, then: To evaluate the effects of the tested compounds on the concentration of Bax protein, anti-Bax FITC-conjugated antibody was applied. MCF-7 cells were seeded on 6-well plates at 5 × 10^6 cells per well, followed by incubation for 24 h. Afterwards, the cells were treated for 24 h with new 4-thiazolidinone derivatives (Les-6416, Les-6418, Les-6381, Les-6423, and Les-6424) at a concentration of 5 µM. Then, cells were collected and incubated with 4% formaldehyde for 15 min at RT. Next, cells were washed with an excess amount of PBS, followed by permeabilization by adding ice-cold 90% methanol and incubation for 60 min in an ice bath. Cells were again washed with an excess of PBS and resuspended in 100 µL of diluted primary antibody, prepared in antibody dilution buffer at a 1:100 dilution, and incubated for 60 min at room temperature in the dark. Cells were washed, resuspended in 0.3 mL, and transferred to the tubes for immediate assessment using a BD FACSCanto II flow cytometer (Becton Dickinson Biosciences, San Jose, CA, USA). For each sample, 1 × 10^4 events were analyzed. The results were analyzed using FACSDiva software Version 6.1.3 (BD Biosciences Systems, San Jose, CA, USA).
Another important protein for the intrinsic pathway of apoptosis is a pro-apoptotic member of the Bcl-2 family-Bax. […]
(A flow cytometer gives signals particle by particle.)

In another series the test system is MDA-MB-468. Format: cell-based.
For a further series, the system named is Colon Cancer. Format: cell-based.
A further series deals with NCI-H23. Type of series: cell-based.
The test system of another series is CCRF-CEM. Type of series: cell-based.
The subject of another series is T-47D. Format: cell-based.

Where a name gives a salt, the structure may show the parent alone. Read-outs that look alike come from different tables or passages of the source.

Take `COc1cccc2c1C(=O)c1c(O)c3c(c(O)c1C2=O)C[C@@](O)(C(=O)CO)C[C@@H]3O[C@H]1C[C@H](N)[C@H](O)[C@H](C)O1` [DOX, Doxorubicin hydrochloride, reference compound]: the “ROS generation versus control” value with MCF-7 cells (0.5 µM, 3 h) is “approximately two times more than the untreated control”.
As for `COc1cc(NC2=NC(=O)C(=Cc3ccc4cc[nH]c4c3)S2)cc(OC)c1OC` [Les-6416, 5-((1H-Indol-6-yl)methylene)-2-((3,4,5-trimethoxyphenyl)amino)thiazol-4(5H)-one], the Growth % with NCI-H522 (NCI-H522, 10 μM, one dose, 48 h) is on record as 3.77%; in the series with MDA-MB-435, −33.26%; in the series with MDA-MB-468 (MDA-MB-468, 10 μM, one dose, 48 h), 1.33%. Also, the “Mean Growth, %” value in series [1] (48 h) is listed as 39.56%. For the same compound, the “Range of Growth, %” value in series [1] (48 h) was −33.26–97.05%. Also, the “Positive Cytostatic Effect” value in series [1] is listed as 38/58. For the same compound, the “Positive Cytotoxic Effect” value in [1] is given as 2/58. Further, the “cells with active caspase 10” value in the series with caspase 10 worked out at 43.23 ± 2.85%. Also, the “Bax positive cells, cell population” value with Bax turned out to be 12.27 ± 0.45%. The “ROS generation versus control” value with MCF-7 cells (2.5 µM, 3 h) is “approximately two times more than the untreated control”; in the series with MCF-7 cells (5 µM, 1 h) it was “two times more than the control”; in the series with MCF-7 cells (5 µM, 3 h), “approximately a threefold increase”.
Regarding `COc1cc(NC2=NC(=O)C(=Cc3c[nH]c4ccccc34)S2)cc(OC)c1OC` [Les-6418, 5-((1H-Indol-3-yl)methylene)-2-((3,4,5-trimethoxyphenyl)amino)thiazol-4(5H)-one], in the series on Colon Cancer (Colon Cancer subpanel mean), the “MG_MID TGI” value was 15.5 µM. The “SI (MG_MID TGI)” value in the series with Colon Cancer (Colon Cancer subpanel, MG_MID_60/value) is 1.20. In addition, the GI50 in the series on Colon Cancer (Homo sapiens, Colon Cancer subpanel mean, read-out: MG_MID GI50) was 2.48 µM; in the series on NCI-H522 (Homo sapiens, NCI-H522, 48 h), 0.403 µM; in series [1] (Homo sapiens, CCRF-CEM, HL-60(TB), SR, NCI-H522, HT29, KM12, MDA-MB-435, OVCAR-3, ACHN, BT-549, MDA-MB-468, read-out: GI50, submicromolar concentration range), 0.28 to 0.98 µM; in series [1] (Homo sapiens, full panel mean, 48 h, read-out: MG_MID_60 GI50), 3.27 µM; in the series with NCI-H23 (Homo sapiens, NCI-H23, 48 h), 5.33 µM; in the series with MDA-MB-435 (Homo sapiens, MDA-MB-435, 48 h), 0.28 µM. The GI50 in the series with CCRF-CEM (Homo sapiens, 48 h) amounted to 2.09 µM; in the series with MDA-MB-468 (Homo sapiens, MDA-MB-468, 48 h), 0.657 µM; with T-47D (Homo sapiens, T47D, 48 h), 3.58 µM. The CC50 is 55.6 µM with Colon Cancer (Homo sapiens, Colon Cancer subpanel mean, read-out: MG_MID LC50); 46 µM in the series on NCI-H522 (Homo sapiens, NCI-H522, 48 h, read-out: LC50 (the source's name)); 54 µM in the series on NCI-H23 (Homo sapiens, NCI-H23, 48 h, read-out: LC50 (the source's name)); more than 100 µM with CCRF-CEM (Homo sapiens, 48 h, read-out: LC50 (the source's name)); 34.3 µM in the series with MDA-MB-468 (Homo sapiens, MDA-MB-468, 48 h, read-out: LC50 (the source's name)); 61.2 µM in the series on T-47D (Homo sapiens, T47D, 48 h, read-out: LC50 (the source's name)). For the same compound, the TGI (in general, the concentration giving total growth inhibition) was 5.56 µM with NCI-H522 (NCI-H522, 48 h); 21.1 µM with NCI-H23 (NCI-H23, 48 h); 0.940 µM in the series on MDA-MB-435 (MDA-MB-435, 48 h); more than 100 µM with CCRF-CEM (48 h); 6.23 µM in the series on MDA-MB-468 (MDA-MB-468, 48 h); 19.7 µM in the series with T-47D (48 h). For the same compound, the “SI (TGI)” value in the series on NCI-H522 (NCI-H522, MG_MID_60/value) turned out to be 3.34; in the series with NCI-H23 (NCI-H23, MG_MID_60/value), 0.88; with MDA-MB-435 (MDA-MB-435, MG_MID_60/value) it was 19.8; with CCRF-CEM (MG_MID_60/value), 0.19; in the series on MDA-MB-468 (MDA-MB-468, MG_MID_60/value) it was 2.99; in the series with T-47D (MG_MID_60/value), 0.94. The “Mean Growth, %” value in series [1] (48 h) is given as −43.64%. Moreover, the “Range of Growth, %” value in series [1] (48 h) is reported as −88.00–14.92%. The “Positive Cytostatic Effect” value in series [1] is recorded as 7/59. Moreover, the “Positive Cytotoxic Effect” value in series [1] is on record as 52/59. For the same compound, the LC50 (usually the concentration lethal to half of the exposed cells or organisms) in series [1] (Homo sapiens, 48 h, full panel mean, 48 h) came to 56.6 µM; in series [1] (full panel mean, 48 h) it was 56.5 µM; in the series with MDA-MB-435 (Homo sapiens, MDA-MB-435, 48 h) it was 14.2 µM. Also, the “MG_MID_60 TGI” value in series [1] (full panel mean, 48 h) amounted to 18.6 µM. Also, the “SI against certain types of cancer” value in series [1] (subpanel selectivity indices at studied dose–response parameters) is recorded as 0.71–1.60. Besides, the Growth % with MDA-MB-435 is listed as −77.11%. In addition, the “Bax positive cells, cell population” value with Bax was determined as 8.27 ± 0.58%.
Turning to `COc1cc(NC2=NC(=O)C(=Cc3cccs3)S2)cc(OC)c1OC` [Les-6423, 5-(Thiophen-2-ylmethylene)-2-((3,4,5-trimethoxyphenyl)amino)thiazol-4(5H)-one], the “cells with active caspase 10” value with caspase 10 is “did not show any effect”.
